{"source": "patent US20070130640A1", "about": "“Methods of modulating auxin production in plants” (priority 2005, published 2007)", "molecules": {"B1": {"name": "CYP83B1 (Arabidopsis thaliana) (protein)", "chain": "MDLLLIIAGLVAAAAFFFLRSTTKKSLRLPPGPKGLPIIGNLHQMEKFNPQHFLFRLSKLYGPIFTMKIGGRRLAVISSAELAKELLKTQDLNFTARPLLKGQQTMSYQGRELGFGQYTAYYREMRKMCMVNLFSPNRVASFRPVREEECQRMMDKIYKAADQSGTVDLSELLLSFTNCVVCRQAFGKRYNEYGTEMKRFIDILYETQALLGTLFFSDLFPYFGFLDNLTGLSARLKKAFKELDTYLQELLDETLDPNRPKQETESFIDLLMQIYKDQPFSIKFTHENVKAMILDIVVPGTDTAAAVVVWAMTYLIKYPEAMKKAQDEVRSVIGDKGYVSEEDIPNLPYLKAVIKESLRLEPVIPILLHRETIADAKIGGYDIPAKTIIQVNAWAVSRDTAAWGDNPNEFIPERFMNEHKGVDFKGQDFELLPFGSGRRMCPAMHLGIAMVEIPFANLLYKFDWSLPKGIKPEDIKMDVMTGLAMHKKEHLVLAPTKHI"}}, "key": {"Arabidopsis seedlings": {"tested_on": "Arabidopsis seedlings", "test": "Seedling growth on media supplemented with IAN (auxin phenotype)", "type": "in vivo", "from_the_text": "Four nitrilases, differentially expressed during development and in response to environmental cues, catalyze hydrolysis of IAN to IAA in Arabidopsis (Bartel and Fink (1994) Proc. Natl. Acad. Sci. USA 91:6649-6653). The nitl mutant is insensitive to the auxin effects of exogenously applied IAN at the seedling stage (Normanly et al. (1997) Plant Cell 9:1781-1790). In accordance with the observed insensitivity of nit1 seedlings to IAN, NIT1 is most strongly expressed in the hypocotyl near the junction with the root in young seedlings as well as in the cotyledons. In contrast, NIT2 and NIT3 are expressed primarily in the cotyledons and NIT4 is expressed in the root tip (Bartel and Fink (1994) Proc. Natl. Acad. Sci. USA 91:6649-6653)."}, "NIT1": {"target": "T1, NIT1 (Arabidopsis thaliana, UniProt P32961)", "T1 sequence (P32961 1-346)": "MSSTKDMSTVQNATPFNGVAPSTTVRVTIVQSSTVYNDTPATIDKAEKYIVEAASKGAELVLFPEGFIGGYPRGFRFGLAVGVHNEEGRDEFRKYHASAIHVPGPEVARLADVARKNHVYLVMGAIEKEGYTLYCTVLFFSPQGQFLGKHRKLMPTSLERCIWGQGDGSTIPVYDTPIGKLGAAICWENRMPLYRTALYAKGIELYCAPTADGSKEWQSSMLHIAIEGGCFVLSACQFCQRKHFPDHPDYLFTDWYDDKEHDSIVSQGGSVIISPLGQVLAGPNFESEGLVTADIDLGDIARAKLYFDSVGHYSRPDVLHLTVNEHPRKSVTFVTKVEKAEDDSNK", "details": "cited from earlier work"}, "NIT2": {"target": "T2, NIT2 (Arabidopsis thaliana, UniProt P32962)", "T2 sequence (P32962 1-339)": "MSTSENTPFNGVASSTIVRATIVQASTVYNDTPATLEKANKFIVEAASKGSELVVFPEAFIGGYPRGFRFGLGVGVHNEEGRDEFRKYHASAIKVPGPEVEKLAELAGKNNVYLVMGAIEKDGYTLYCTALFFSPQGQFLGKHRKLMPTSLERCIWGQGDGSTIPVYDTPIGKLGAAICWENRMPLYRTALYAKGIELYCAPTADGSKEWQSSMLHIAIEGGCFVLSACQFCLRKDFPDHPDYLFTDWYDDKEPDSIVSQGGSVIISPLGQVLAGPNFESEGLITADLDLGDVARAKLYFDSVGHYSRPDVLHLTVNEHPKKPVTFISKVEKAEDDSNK", "details": "cited from earlier work"}, "CYP83B1 [1]": {"target": "T3, CYP83B1 (Arabidopsis thaliana, UniProt O65782)", "T3 sequence (O65782 1-499)": "B1 chain", "test": "CYP83B1 catalysis of [5-3H]indole-3-acetaldoxime metabolism (Km, Vmax, inhibition; TLC / scintillation counting)", "protocol": "(§1) FIG. 3. (A) Analysis of CYP83B1 by optical difference spectroscopy. […] After incubation for 10 min at 28° C., reaction mixtures were extracted with ethylacetate and analyzed by TLC. (s) substrate, (p) product.\nAfter incubation, reaction mixtures were stopped by adding SDS to 0.4% and were analyzed by thin layer chromatography (TLC). TLC plates were developed in chloroform/methanol/water (85:14:1) and radioactive bands visualized by autoradiography.\nReactions were stopped and extracted with ethylacetate. Aliquots of the substrate-containing ethylacetate phase and product-containing water phase were subjected to liquid scintillation counting."}, "CYP83B1 [2]": {"target": "T3, CYP83B1", "test": "Spectral analysis (optical difference spectroscopy) of ligand binding to heterologously expressed CYP83B1 in yeast microsomes", "protocol": "as §1"}, "wild type seedlings": {"tested_on": "wild type seedlings", "test": "Indole glucosinolate levels in seedlings grown on MS agar, quantified colorimetrically as SCN", "type": "in vivo, Arabidopsis", "details": "wild type seedlings germinated on MS media with 100 μM tryptamine; two week old; n=10", "protocol": "FIG. 6. Indole glucosinolate levels are affected by CYP83B1 expression. Indole glucosinolates in individual two week old seedlings grown on MS agar were quantified calorimetrically as SCN. 1) Wild type, 2) rnt1-1, 3) molecularly complemented line 3.25.11, 4) overexpression line 1.4.7, and 5) wild type grown on 100 μM tryptamine. Data are represented as the mean ±S.E, (n=10 seedlings). Except for the molecularly complemented line 3.25.11, mean indole glucosinolate values all differ from wild type seedling values at a 1% confidence value (t-test).\nTryptophan-derived indole-3-acetaldoxime is also an intermediate in the biosynthesis of indole glucosinolates."}, "[3]": {"substrate": "ON=CCc1c[nH]c2ccccc12", "test": "purified protein, by the assay type", "details": "other: in the presence of cysteine, 2.2 nM CYP83B1, 1 min at 28 °C, estimated, pH 7.6"}}, "note": "Read-outs that look alike come from different tables or passages of the source."}
{"molecule": "N#CCc1c[nH]c2ccccc12", "note": "[IAN, indole-3-acetonitrile]", "values": [{"measurement": "effect on rnt1-1 seedlings (germination)", "setting": "Arabidopsis seedlings; rnt1-1 seedlings grown on 50 μM IAN", "result": "almost completely inhibiting germination"}, {"measurement": "phenotype of wild type seedlings", "setting": "Arabidopsis seedlings; wild type Arabidopsis seedlings on media with 50 μM IAN", "result": "phenocopy rnt1-1 seedlings"}, {"measurement": "Km for IAN hydrolysis", "setting": "NIT1", "result": "in the mM range"}, {"measurement": "Km for IAN hydrolysis", "setting": "NIT2", "result": "in the mM range"}]}
{"molecule": "ON=CCc1c[nH]c2ccccc12", "note": "[indole-3-acetaldoxime]", "values": [{"measurement": "turnover (number)", "setting": "CYP83B1 [1]; in the presence of cysteine, 2.2 nM CYP83B1, 1 min at 28 °C", "result": 53, "unit": "min⁻¹"}, {"measurement": "type of binding spectrum caused", "setting": "CYP83B1 [2]", "result": "weak reverse type I spectrum"}]}
{"molecule": "NCCc1c[nH]c2ccccc12", "note": "[tryptamine]", "values": [{"measurement": "indole glucosinolate levels compared to wild type seedlings", "setting": "wild type seedlings", "result": "reduced levels"}, {"measurement": "inhibition of CYP83B1 catalysis (indole-3-acetaldoxime oxidation)", "setting": "CYP83B1 [1]; 22 nM CYP83B1, 35 μM [5-3H]indole-3-acetaldoxime, 17.5 mM tryptamine, 10 min at 28 °C, TLC (FIG. 3B)", "result": "inhibitor"}, {"measurement": "type of binding spectrum caused", "setting": "CYP83B1 [2]; yeast microsomes containing CYP83B1", "result": "typical type IIa binding spectrum"}]}
{"molecule": "B1", "values": [{"measurement": "Km", "setting": "[3]", "result": 3, "unit": "µM"}]}
